Biological target: T1, human GlyT1b (Homo sapiens, UniProt P48067)
T1 construct: expressed in transfected cells
T1 sequence (P48067 1-652 isoform P48067-3): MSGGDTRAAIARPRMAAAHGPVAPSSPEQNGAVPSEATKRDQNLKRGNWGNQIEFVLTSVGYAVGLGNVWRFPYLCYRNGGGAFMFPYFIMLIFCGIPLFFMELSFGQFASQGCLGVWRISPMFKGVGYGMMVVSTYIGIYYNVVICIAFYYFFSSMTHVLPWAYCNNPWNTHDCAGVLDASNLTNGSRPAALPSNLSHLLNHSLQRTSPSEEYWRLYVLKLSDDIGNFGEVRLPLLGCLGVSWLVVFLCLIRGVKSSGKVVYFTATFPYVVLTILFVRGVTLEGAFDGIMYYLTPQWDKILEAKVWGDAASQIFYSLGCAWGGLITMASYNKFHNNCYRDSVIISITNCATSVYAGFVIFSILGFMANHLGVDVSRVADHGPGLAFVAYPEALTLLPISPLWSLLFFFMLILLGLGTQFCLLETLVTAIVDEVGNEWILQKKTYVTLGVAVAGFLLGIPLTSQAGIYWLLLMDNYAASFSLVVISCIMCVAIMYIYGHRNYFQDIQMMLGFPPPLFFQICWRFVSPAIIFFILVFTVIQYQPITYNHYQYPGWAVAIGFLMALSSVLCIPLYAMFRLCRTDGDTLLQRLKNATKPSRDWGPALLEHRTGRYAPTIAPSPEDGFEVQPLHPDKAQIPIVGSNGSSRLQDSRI
Assay: [3H] Glycine Uptake Assay (SPA) in recombinant hGlyT1b-CHO cells
Type: cell-based
Conditions: Table 2, unit from table title
Procedure: A. [3H] Glycine Uptake Assay
Preparation of recombinant human GlyT1b-CHO cells (hGlyT1b-CHO). The human GlyT1b CDS (GC002087, NM_006934) was cloned downstream of a CMV promoter in a bicistronic expression vector containing a hygromycin B resistance gene. CHO-K1 cells (ATCC) were transfected with the recombinant vector containing GlyT1b using Lipofectamine 2000 (Invitrogen) and cultured in Ham's/F12 media supplemented with 10% fetal bovine serum, 2 mM L-glutamine at 37° C., 5% CO2, 90% humidity. Twenty-four hours after transfection, cells were diluted and switched to media containing 0.5 mg/ml hygromycin B. Antibiotic resistant cells were obtained after 21 days of culture in the presence of hygromycin B. Clonal stable cell lines were isolated by FACS single cell deposition into 96-well plates.
Cells used were Recombinant hGlyT1b/CHO. These cells were cultured in cell culture medium (Ham's/F12 (Modified) (Mediatech, 10-080-CM), containing 10% FBS, 2 mM L-glutamine (Invitrogen 25030-149) and 0.5 mg/mL hygromycin B (Invitrogen, 10687-010)) in 175 cm^2 flasks until near confluence before use in the assay.
Cell medium in a cell culture flask containing near confluent cells was removed and 5 mL of cell stripper was added to submerge all cells on the surface of the culture flask. Cell stripper was removed immediately and the flask incubated in a 37° C. incubator for ˜5 min. Cells were shaken loose and suspended in 5 mL of PBS. After splitting cells to initiate a new flask(s), the cells remaining were collected by centrifugation, counted, and resuspended in assay buffer to a density of ˜2 million/mL. The cell suspension was kept at room temperature before use. The assays buffer was 10 mM HEPES, pH 7.4, containing 150 mM NaCl, 5 mM KCl, 1.5 mM CaCl2, 1.5 mM MgCl2, 0.45 mg/mL L-alanine (added fresh), and 1.8 mg/mL D-glucose (added fresh).
WGA PTV beads were suspended in assay buffer (2 mg/ml) containing 60 nM [^3H]Glycine (PerkinElmer (NET-004, [2-^3H]Glycine, 53.3 Ci/mmol, 1 mCi/mL)) and 20 μM unlabeled glycine and the suspension was kept at room temperature before assay.
To the wells of an OptiPlate, 2 μl DMSO containing a test compound was spotted. This was followed by addition of 98 μl of cell suspension (˜1 million/ml final). After incubating cells with compound for ˜15 min, 100 μl of the SPA (200 μg/well final) and isotope mixture (30 nM isotope with 10 μM cold glycine, final) was added to initiate the glycine uptake. At 2 h, the plate was read on a TopCount to quantify SPA counts.

| Compound | IC50 [µM] |
| --- | --- |
| Cc1cccc(C)c1C(=O)NC(c1cccc(F)c1)C12CCC(CC1)N2 (centres unmarked) [Example 35] | 0.018 |
| Cc1cccc(C)c1C(=O)NC(c1ccncc1)C12CCC(CC1)N2C (centres unmarked) [Example 37] | 0.006 |
| Cc1cccc(C)c1C(=O)N[C@H](c1ccccc1)C12CCC(CC1)N2CCN [Example 40] | 0.013 |
| CC(=O)NCCN1C2CCC1([C@H](NC(=O)c1c(C)cccc1C)c1ccccc1)CC2 [Example 42] | 0.006 |
| CSc1ncccc1C(=O)NC(c1ccccc1)C12CCC(CC1)N2C1CCC1 (centres unmarked) [Example 44] | 0.243 |
| CSc1ncccc1C(=O)NC(c1ccccc1)C12CCC(CC1)N2C(C)C (centres unmarked) [Example 48] | 0.023 |
| Cc1cccc(C)c1C(=O)N[C@H](c1ccccc1)C12CCC(CC1)N2Cc1ccccn1 [Example 49] | 0.155 |
| CCN1C2CCC1(C(NC(=O)c1c(Cl)cncc1Cl)c1ccccc1)CC2 (centres unmarked) [Example 50] | 0.237 |
| CCN1C2CCC1(C(NC(=O)c1cccnc1SC)c1ccccc1)CC2 (centres unmarked) [Example 51] | 0.107 |
| CCN1C2CCC1(C(NC(=O)c1ccnc(C(F)(F)F)c1F)c1ccccc1)CC2 (centres unmarked) [Example 52] | 0.297 |
| COCCCN1C2CCC1(C(NC(=O)c1cccnc1SC)c1ccccc1)CC2 (centres unmarked) [Example 55] | 0.31 |
| Cc1cccc(C)c1C(=O)N[C@H](c1ccccc1)C12CCC(CC1)N2CC1CCCO1 (some centres unmarked) [Example 56] | 0.004 |
| CSc1ncccc1C(=O)N[C@H](c1ccccc1)C12CCC(CC1)N2C1CC1 [Example 57] | 0.045 |
| Cc1cccc(C)c1C(=O)N[C@H](c1ccccc1)C12CCC(CC1)N2CCC(F)(F)F [Example 58] | 0.003 |
| Cc1cccc(C)c1C(=O)NC(c1cccnc1)C12CCC(CC1)N2 (centres unmarked) [Example 60] | 0.03 |
| Cc1cccc(C)c1C(=O)N[C@H](c1ccccc1)C12CCC(CC1)N2Cc1cnn(C)c1 [Example 61] | 0.012 |
| Cc1cccc(C)c1C(=O)NC(c1cccnc1)C12CCC(CC1)N2C (centres unmarked) [Example 65] | 0.031 |
| Cc1cccc(Cl)c1C(=O)NC(c1ccccc1)C12CCC(CC1)N2C (centres unmarked) [Example 67] | 0.006 |
| Cc1ccc(C(NC(=O)c2c(C)cccc2C)C23CCC(CC2)N3C)cn1 (centres unmarked) [Example 68] | 0.129 |
| Cc1cccc(C)c1C(=O)N[C@H](c1ccccc1)C12CCC(CC1)N2CCN1CCCC1 [Example 69] | 0.051 |
| Cc1cccc(C)c1C(=O)N[C@H](c1ccccc1)C12CCC(CC1)N2CCN1CCOC1=O [Example 70] | 0.003 |

| Compound | IC50 [µM] |
| --- | --- |
| Cc1cccc(C)c1C(=O)N[C@H](c1ccccc1)C12CCC(CC1)N2CCN1CCOCC1 [Example 71] | < 0.002 |
| Cc1cccc(C)c1C(=O)N[C@H](c1cncnc1)C12CCC(CC1)N2C [Example 72] | 0.148 |
| Cc1cccc(C)c1C(=O)NC(c1cccc(C#N)c1)C12CCC(CC1)N2C (centres unmarked) [Example 79] | 0.087 |
| Cc1cccc(C)c1C(=O)N[C@H](c1ccccc1)C12CCC(CC1)N2C[C@H]1CCCN1 [Example 80] | 0.313 |
| Cc1cc(F)cc(C)c1C(=O)NC(c1ccccc1)C12CCC(CC1)N2C (centres unmarked) [Example 82] | 0.004 |
| Cc1cc(C(NC(=O)c2c(C)cccc2C)C23CCC(CC2)N3)ccn1 (centres unmarked) [Example 83] | 0.136 |
| Cc1cccc(C(NC(=O)c2c(C)cccc2C)C23CCC(CC2)N3C)c1 (centres unmarked) [Example 84] | 0.026 |
| Cc1cccc(C)c1C(=O)NC(c1cccc(C(=O)N(C)C)c1)C12CCC(CC1)N2C (centres unmarked) [Example 88] | 0.057 |
| Cc1cccc(C)c1C(=O)NC(c1ccc(Br)cc1)C12CCC(CC1)N2 (centres unmarked) [Example 89] | 0.068 |
| Cc1cccc(C)c1C(=O)NC(c1ccc(Br)cc1)C12CCC(CC1)N2C (centres unmarked) [Example 90] | 0.004 |
| COCCN1C2CCC1([C@H](NC(=O)c1ccccc1C)c1ccccc1)CC2 [Example 92] | 0.202 |
| Cc1cccc(C)c1C(=O)NC(c1ccc(C#N)cc1)C12CCC(CC1)N2C (centres unmarked) [Example 93] | 0.226 |
| CCc1ccccc1C(=O)N[C@H](c1ccccc1)C12CCC(CC1)N2CCOC [Example 95] | 0.068 |
| COCCN1C2CCC1([C@H](NC(=O)c1ccc(F)cc1C)c1ccccc1)CC2 [Example 96] | 0.167 |
| Cc1cccc(C)c1C(=O)NC(c1ccc(N2CCOCC2)cc1)C12CCC(CC1)N2C (centres unmarked) [Example 97] | 0.073 |
| CCCOC(=O)c1ccc(C(NC(=O)c2c(C)cccc2C)C23CCC(CC2)N3C)cc1 (centres unmarked) [Example 98] | 0.039 |
| Cc1cccc(C)c1C(=O)NC(c1ccc(O)cc1)C12CCC(CC1)N2C (centres unmarked) [Example 99] | 0.006 |
| CCCOc1ccc(C(NC(=O)c2c(C)cccc2C)C23CCC(CC2)N3C)cc1 (centres unmarked) [Example 100] | 0.223 |
| CC(=O)Nc1cccc(C(NC(=O)c2c(C)cccc2C)C23CCC(CC2)N3C)c1 (centres unmarked) [Example 102] | 0.127 |
| CCCCc1cccc(C(NC(=O)c2c(C)cccc2C)C23CCC(CC2)N3C)c1 (centres unmarked) [Example 103] | 0.119 |

From patent US20120094995A1, “2-AZA-BICYCLO[2.2.1]HEPTANE COMPOUNDS AND USES THEREOF” (ASTRAZENECA AB, priority 2009, published 2012)
